These results are taken from patent publication US10874640B2 (GILEAD SCIENCES, INC., priority 2016, dated 2020).

One series can be described thus: Hepatic Stability Assay. It counts as in vitro ADME. Further details: dose or concentration left out as unconfirmed. As to conditions: pooled cryopreserved hepatocytes; read-out: t½. The protocol: The metabolic stability of certain compounds disclosed herein was assessed in vitro in pooled cryopreserved hepatocytes using the in vitro half-life method. Incubations were at 37° C. and final concentrations in the incubations were 1×10^6 cells/mL and […] test concentration of the compound. Aliquots were sequentially removed after 0, 1, 3 and 6 hours and analyzed by LC-MS/MS. In vitro half-life was determined by measuring the rate of disappearance of the compound and then scaled to predicted hepatic clearance using the well-stirred model. […] As such, compounds having a value of 39.5 may have a half live that exceeds 39.5 hours.

The subject of series [1] is HBV AD38 viral particles in HepG2 cell line overexpressing NTCP. The experiment in a line: HBV DNA Quantification Assay. The following applies: Hepatitis B virus, HepG2, 120 h, HBV AD38-infected HepG2-NTCP cells, 5 days incubation, HBV DNA in culture supernatant (QuantiGene 2.0); geometric mean of a minimum of four determinations. It counts as cell-based. The protocol:
A HepG2 cell line overexpressing the HBV virus attachment receptor sodium-taurocholate cotransporting polypeptide (NTCP) was grown to confluency in DMEM growth medium, Dulbecco's Modified Eagle Medium without sodium pyruvate (Life Technologies, Rockville, Md.) supplemented with 10% FBS (Thermo Scientific, Waltham, Md.), 1% penicillin/streptomycin (Life Technologies, Rockville, Md.) and 2 mM L-glutamine (Life Technologies, Rockville, Md.) in T175 flasks. Cells were infected with HBV AD38 viral particles (Texcell, Frederick, USA) at 4000 genome equivalents per cell. […] The assay plates were incubated for a period of 5 days and the antiviral activity of the test compounds were assayed by detecting the presence of HBV DNA in the culture supernatant using the QuantiGene™ 2.0 nucleic acid quantification kit (Affymetrix, Santa Clara, Calif.).
The culture supernatant was harvested and treated with lysis buffer containing Proteinase K (Affymetrix, Santa Clara, Calif.). […] After the final wash step, the alkaline phosphatase substrate (Luminol APS5) was added and the resulting luminescence signal was read in an EnVision Multilabel Plate Reader (PerkinElmer, Santa Clara, Calif.). […]

Turning to `CNC(=O)C1(NC(=O)C(=O)c2c(C)c(C(=O)Nc3ccc(F)c(C#N)c3)n3c2CCC3)CC(F)(F)C1` [Example 35, N-(3-cyano-4-fluorophenyl)-7-(2-((3,3-difluoro-1-(methylcarbamoyl)cyclobutyl)amino)-2-oxoacetyl)-6-methyl-2,3-dihydro-1H-pyrrolizine-5-carboxamide], the half-life in the series “Hepatic Stability Assay” was no less than 39.5 h.
Consider `CNC(=O)C1(NC(=O)C(=O)c2c(C)c(C(=O)Nc3ccc(F)c(F)c3)n3c2CCC3)CC(F)(F)C1` [Example 44, 7-(2-((3,3-difluoro-1-(methylcarbamoyl)cyclobutyl)amino)-2-oxoacetyl)-N-(3,4-difluorophenyl)-6-methyl-2,3-dihydro-1H-pyrrolizine-5-carboxamide], for which the half-life in the series “Hepatic Stability Assay” is no less than 39.5 h.
Consider `CNC(=O)C1(NC(=O)C(=O)c2c(C)c(C(=O)Nc3ccc(F)cc3)n3c2CCC3)CC(F)(F)C1` [Example 47, 7-(2-((3,3-difluoro-1-(methylcarbamoyl)cyclobutyl)amino)-2-oxoacetyl)-N-(4-fluorophenyl)-6-methyl-2,3-dihydro-1H-pyrrolizine-5-carboxamide], for which the half-life in “Hepatic Stability Assay” was no less than 39.5 h.
The same measure, in the same setting: then `CNC(=O)C1(NC(=O)C(=O)c2c(C)c(C(=O)Nc3ccc(F)c(F)c3)n3c2C[C@@H](F)C3)CC(F)(F)C1` [Example 49, (R)-7-(2-((3,3-difluoro-1-(methylcarbamoyl)cyclobutyl)amino)-2-oxoacetyl)-N-(3,4-difluorophenyl)-2-fluoro-6-methyl-2,3-dihydro-1H-pyrrolizine-5-carboxamide], with no less than 39.5 h.
On the same count and under the same terms, then `Cc1c(C(=O)C(=O)NC2(c3c[nH]nn3)CC2)c2n(c1C(=O)Nc1ccnc(C(F)F)c1)[C@@H]1C[C@@H]1C2` [Example 56, (1aR,6aR)-5-(2-((1-(1H-1,2,3-triazol-4-yl)cyclopropyl)amino)-2-oxoacetyl)-N-(2-(difluoromethyl)pyridin-4-yl)-4-methyl-1,1a,6,6a-tetrahydrocyclopropa[b]pyrrolizine-3-carboxamide], with no less than 39.5 h.
For the compound `Cc1c(C(=O)C(=O)NC2(c3c[nH]nn3)CC2)c2n(c1C(=O)Nc1ccc(F)cc1)CCC2` [Example 70, 7-(2-((1-(1H-1,2,3-triazol-4-yl)cyclopropyl)amino)-2-oxoacetyl)-N-(4-fluorophenyl)-6-methyl-2,3-dihydro-1H-pyrrolizine-5-carboxamide], the half-life in the series “Hepatic Stability Assay” is no less than 39.5 h.
Same read-out and setting: then `Cc1c(C(=O)C(=O)NC2(C)CS(=O)(=O)C2)c2n(c1C(=O)Nc1ccc(F)c(C#N)c1)[C@@H]1C[C@@H]1C2` [Example 72, (1aR,6aR)—N-(3-cyano-4-fluorophenyl)-4-methyl-5-(2-((3-methyl-1,1-dioxidothietan-3-yl)amino)-2-oxoacetyl)-1,1a,6,6a-tetrahydrocyclopropa[b]pyrrolizine-3-carboxamide], with no less than 39.5 h.
As to `Cc1c(C(=O)C(=O)NC2(c3c[nH]nn3)CC(F)(F)C2)c2n(c1C(=O)Nc1ccnc(C(F)F)c1F)[C@@H]1C[C@@H]1C2` [Example 80, (1aR,6aR)-5-(2-((3,3-difluoro-1-(1H-1,2,3-triazol-4-yl)cyclobutyl)amino)-2-oxoacetyl)-N-(2-(difluoromethyl)-3-fluoropyridin-4-yl)-4-methyl-1,1a,6,6a-tetrahydrocyclopropa[b]pyrrolizine-3-carboxamide], the EC50 (usually the concentration giving half of the maximal effect) in series [1] was found to be 8.7 nM.
Regarding `CNC(=O)C1(NC(=O)C(=O)c2c(C)c(C(=O)Nc3cccc(C(F)F)c3)n3c2CCC3)CC(F)(F)C1` [Example 115, 7-(2-((3,3-difluoro-1-(methylcarbamoyl)cyclobutyl)amino)-2-oxoacetyl)-N-(3-(difluoromethyl)phenyl)-6-methyl-2,3-dihydro-1H-pyrrolizine-5-carboxamide], the half-life in “Hepatic Stability Assay” is no less than 39.5 h.
On the same count and under the same terms, then `CNC(=O)C1(NC(=O)C(=O)c2c(C)c(C(=O)Nc3ccc(F)c(C(F)F)c3)n3c2CCC3)CC(F)(F)C1` [Example 116, 7-(2-((3,3-difluoro-1-(methylcarbamoyl)cyclobutyl)amino)-2-oxoacetyl)-N-(3-(difluoromethyl)-4-fluorophenyl)-6-methyl-2,3-dihydro-1H-pyrrolizine-5-carboxamide], with no less than 39.5 h; and `Cc1c(C(=O)C(=O)N[C@](C)(C(N)=O)C(F)(F)F)c2n(c1C(=O)Nc1ccc(F)c(F)c1)CCC2` [Example 135], with no less than 39.5 h; and `Cc1c(C(=O)C(=O)N[C@@](C)(C(N)=O)C(F)(F)F)c2n(c1C(=O)Nc1ccc(F)c(F)c1)CCC2` [Example 136], with no less than 39.5 h.
